{"source": "ChEMBL document CHEMBL1159208", "about": "“The structures and cytotoxic properties of polyketide peroxides from a Plakortis sponge” (J Nat Prod, 1995)", "test_system": "NCI60", "experiment": "Cytotoxicity against human NCI60 cells", "format": "functional, cell-based", "note": "Active and inactive are the calls of the source. The rule behind the calls is not given here."}
{"smiles": "C[C@]1(CCCCCCCCCCc2ccccc2)C[C@@]2(C)OC(=O)C[C@H]2O1", "values": [{"measurement": "Activity", "value": "inactive"}]}
{"smiles": "C[C@]1(CCCCCCCCc2ccccc2)CC[C@](C)(CCC(=O)O)OO1", "values": [{"measurement": "Activity", "value": "inactive"}]}
